Data published in patent US8637269B2, “Method for the detection of melamine” (Bioo Scientific Corporation, priority 2009, dated 2014).

Target: recombinant MDA enzyme (melamine deaminase, Tri A) (Paracidovorax citrulli, UniProt Q9EYU0)
Test: Enzymatic detection of melamine in microtiter plates (MDA-mediated conversion to ammonia, indophenol colour)
Format: biochemical, Pseudomonas sp. strain NRRL B-12227
Settings: melamine (1000 ppm stock) and MDA enzyme diluted in 0.1 M Na-MOPS pH 7, overnight (about 12 hours), room temperature; salicylate/nitroprusside and NaOH/hypochlorite reagents; FIG. 2
Text: The TriA gene encoding the melamine deaminase enzyme was inserted into the multiple cloning site region of the pET 24b bacterial expression plasmid. This subcloning strategy places the gene under the transcriptional regulation of the T7 RNA polymerase and fuses a His6 peptide tag onto the C-terminus of the protein to facilitate purification. We expressed the protein (MW about 50 kDa) in E. coli strain BL21 (DE3) and obtained significant amounts of soluble protein in the induced bacterial cultures. After disruption the lysed cell extract was passed over a Talon Cobalt column to bind the His6-tagged protein. After washing the column the bound protein was eluted from the column and dialyzed to remove imidazole.
Purified, desalted recombinant MDA enzyme (about 2 mg/ml in 0.1 M Na-MOPS buffer pH 7) and melamine (1000 ppm) were diluted into 0.1 M Na-MOPS buffer (pH 7) and incubated overnight (about 12 hours) at room temperature. Reaction aliquots were removed and tested for the production of ammonia by mixing the samples with salicylate/nitroprusside and NaOH/hypochlorite reagents in 96 well microtiter plates.

Chain of recombinant MDA enzyme (melamine deaminase, Tri A) (Q9EYU0 whole entry): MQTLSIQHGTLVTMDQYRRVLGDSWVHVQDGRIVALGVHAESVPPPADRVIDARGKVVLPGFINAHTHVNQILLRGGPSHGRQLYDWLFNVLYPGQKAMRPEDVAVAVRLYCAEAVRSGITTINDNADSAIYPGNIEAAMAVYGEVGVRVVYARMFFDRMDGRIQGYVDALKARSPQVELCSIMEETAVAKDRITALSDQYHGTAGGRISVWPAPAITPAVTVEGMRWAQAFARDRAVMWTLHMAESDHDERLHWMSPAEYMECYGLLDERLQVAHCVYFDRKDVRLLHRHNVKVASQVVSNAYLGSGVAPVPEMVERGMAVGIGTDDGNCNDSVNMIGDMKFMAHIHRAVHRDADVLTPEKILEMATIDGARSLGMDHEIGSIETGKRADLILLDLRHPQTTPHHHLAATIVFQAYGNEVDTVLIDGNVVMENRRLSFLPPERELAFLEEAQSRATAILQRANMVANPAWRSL

With `Nc1nc(N)nc(N)n1` [melamine] the “color change indicating MDA-mediated conversion of melamine to ammonia” value was “strong color change”.
